Activity calls are given as the source filed them.
How the values were obtained:
Format in all cases: functional
[1] = molecular target: T1, Replicative DNA helicase DnaB (Mycobacterium tuberculosis, UniProt P9WMR3); assay: DnaB intein splicing inhibitors, dose response, biochemical, cell-free fluorescence (AID 449749)
T1 sequence (P9WMR3 whole entry): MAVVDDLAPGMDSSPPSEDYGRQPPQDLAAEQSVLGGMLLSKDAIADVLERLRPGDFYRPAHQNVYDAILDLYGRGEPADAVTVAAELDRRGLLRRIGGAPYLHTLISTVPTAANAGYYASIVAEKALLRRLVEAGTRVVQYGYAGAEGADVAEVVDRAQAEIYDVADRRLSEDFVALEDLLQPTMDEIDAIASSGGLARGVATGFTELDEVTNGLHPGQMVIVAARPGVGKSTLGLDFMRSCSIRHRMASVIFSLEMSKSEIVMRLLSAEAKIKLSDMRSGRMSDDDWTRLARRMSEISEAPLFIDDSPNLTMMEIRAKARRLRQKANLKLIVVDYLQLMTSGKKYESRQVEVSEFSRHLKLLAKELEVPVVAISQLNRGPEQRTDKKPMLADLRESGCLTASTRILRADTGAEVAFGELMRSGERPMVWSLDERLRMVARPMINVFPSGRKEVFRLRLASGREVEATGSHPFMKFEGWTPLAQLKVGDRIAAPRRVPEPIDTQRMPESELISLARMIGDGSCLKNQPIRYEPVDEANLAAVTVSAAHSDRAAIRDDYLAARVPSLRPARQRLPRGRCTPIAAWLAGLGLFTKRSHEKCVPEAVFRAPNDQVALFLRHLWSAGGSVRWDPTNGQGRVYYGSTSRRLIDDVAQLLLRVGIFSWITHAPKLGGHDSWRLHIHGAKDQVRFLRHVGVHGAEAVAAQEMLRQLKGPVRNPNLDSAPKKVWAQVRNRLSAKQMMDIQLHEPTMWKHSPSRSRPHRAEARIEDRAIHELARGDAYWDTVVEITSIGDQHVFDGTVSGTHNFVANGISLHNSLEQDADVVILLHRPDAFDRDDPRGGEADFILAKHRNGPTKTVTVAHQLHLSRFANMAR

[2] = molecular target: T2, Sentrin-specific protease 8 (Homo sapiens, UniProt Q96LD8); assay: inhibition of human SENP8 cleavage activity – biochemical, luminescence, SAR follow-up (AID 504501)
T2 sequence (Q96LD8 whole entry): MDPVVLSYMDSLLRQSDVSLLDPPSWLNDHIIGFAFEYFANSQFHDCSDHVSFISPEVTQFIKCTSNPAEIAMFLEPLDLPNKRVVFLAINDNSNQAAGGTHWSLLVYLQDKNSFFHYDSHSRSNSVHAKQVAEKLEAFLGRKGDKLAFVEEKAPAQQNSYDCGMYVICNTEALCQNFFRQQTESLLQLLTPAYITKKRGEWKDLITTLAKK

[3] = molecular target: Serine/threonine-protein kinase 3 (Homo sapiens, UniProt Q13188);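 note: measured as one member of a kinome-wide kinase panel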
[4] = molecular target: Serine/threonine-protein kinase pim-1 (Homo sapiens, UniProt P11309)
[5] = molecular target: MAP kinase-activated protein kinase 3 (Homo sapiens, UniProt Q16644);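 note: value comes from a kinome-wide profiling panel in which MAPKAPK3 is one of the panel members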
[6] = molecular target: Casein kinase II subunit alpha (Homo sapiens, UniProt P68400)
[7] = molecular target: Casein kinase I isoform delta (Homo sapiens, UniProt P48730);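 note: measured as one member (CSNK1D) of a kinome panel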
[8] = molecular target: Fibroblast growth factor receptor 3 (Homo sapiens, UniProt P22607)
[9] = molecular target: Calcium/calmodulin-dependent protein kinase type 1 (Homo sapiens, UniProt Q14012)
[10] = molecular target: Serine/threonine-protein kinase pim-3 (Homo sapiens, UniProt Q86V86);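 note: value obtained as one member of a broad kinase panel profiling effort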
[11] = molecular target: Tyrosine-protein kinase ABL1 (Homo sapiens, UniProt P00519)
[12] = molecular target: Calcium/calmodulin-dependent protein kinase type II subunit gamma (Homo sapiens, UniProt Q13555)
[13] = molecular target: Mitogen-activated protein kinase kinase kinase kinase 4 (Homo sapiens, UniProt O95819)
[14] = molecular target: Proto-oncogene tyrosine-protein kinase receptor Ret (Homo sapiens, UniProt P07949);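 note: measured within a kinome-wide profiling panel, RET as the panel member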
[15] = molecular target: Protein kinase C iota type (Homo sapiens, UniProt P41743);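 note: measured within a kinome-wide kinase panel, PRKCI as panel member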
[16] = molecular target: Dual specificity tyrosine-phosphorylation-regulated kinase 3 (Homo sapiens, UniProt O43781);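 note: measured as one member of a broad kinase panel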
[17] = molecular target: Tyrosine-protein kinase Fyn (Homo sapiens, UniProt P06241)
[18] = molecular target: RAC-gamma serine/threonine-protein kinase (Homo sapiens, UniProt Q9Y243)
[19] = molecular target: Tyrosine-protein kinase Blk (Homo sapiens, UniProt P51451);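 note: obtained as one member of a kinome-wide kinase assay panel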
[20] = molecular target: MAP/microtubule affinity-regulating kinase 3 (Homo sapiens, UniProt P27448);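 note: MARK3 affinity measured as one member of a kinome panel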
[21] = molecular target: Homeodomain-interacting protein kinase 2 (Homo sapiens, UniProt Q9H2X6);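 note: measured within a kinome-wide kinase profiling panel, HIPK2 being one panel member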
[22] = molecular target: Cell division cycle 7-related protein kinase (Homo sapiens, UniProt O00311);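 note: value obtained from a kinome-wide kinase panel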
[23] = molecular target: Hepatocyte growth factor receptor (Homo sapiens, UniProt P08581);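 note: kinase panel profiling across the kinome, with MET as the panel member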

Chain of MAP/microtubule affinity-regulating kinase 3 (P27448 whole entry): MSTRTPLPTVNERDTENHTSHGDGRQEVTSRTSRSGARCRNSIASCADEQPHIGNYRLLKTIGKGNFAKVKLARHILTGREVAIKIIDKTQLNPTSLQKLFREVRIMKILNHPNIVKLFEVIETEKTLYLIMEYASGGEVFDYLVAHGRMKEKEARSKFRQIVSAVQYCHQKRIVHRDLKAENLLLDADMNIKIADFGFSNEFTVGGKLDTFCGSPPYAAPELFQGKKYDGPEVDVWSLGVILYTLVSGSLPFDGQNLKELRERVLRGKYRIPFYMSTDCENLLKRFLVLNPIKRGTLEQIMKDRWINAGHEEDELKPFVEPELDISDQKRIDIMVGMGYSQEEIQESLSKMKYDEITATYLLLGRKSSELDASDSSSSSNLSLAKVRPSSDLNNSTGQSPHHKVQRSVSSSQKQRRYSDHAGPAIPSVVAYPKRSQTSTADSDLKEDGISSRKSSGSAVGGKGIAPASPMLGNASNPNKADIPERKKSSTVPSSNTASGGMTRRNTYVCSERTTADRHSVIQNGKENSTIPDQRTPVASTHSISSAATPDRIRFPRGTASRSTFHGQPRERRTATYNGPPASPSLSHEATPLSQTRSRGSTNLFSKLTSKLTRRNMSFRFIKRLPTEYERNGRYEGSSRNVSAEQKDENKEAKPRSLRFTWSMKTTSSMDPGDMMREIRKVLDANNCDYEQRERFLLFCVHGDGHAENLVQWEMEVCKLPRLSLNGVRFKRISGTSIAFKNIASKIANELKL
Chain of RAC-gamma serine/threonine-protein kinase (Q9Y243 whole entry): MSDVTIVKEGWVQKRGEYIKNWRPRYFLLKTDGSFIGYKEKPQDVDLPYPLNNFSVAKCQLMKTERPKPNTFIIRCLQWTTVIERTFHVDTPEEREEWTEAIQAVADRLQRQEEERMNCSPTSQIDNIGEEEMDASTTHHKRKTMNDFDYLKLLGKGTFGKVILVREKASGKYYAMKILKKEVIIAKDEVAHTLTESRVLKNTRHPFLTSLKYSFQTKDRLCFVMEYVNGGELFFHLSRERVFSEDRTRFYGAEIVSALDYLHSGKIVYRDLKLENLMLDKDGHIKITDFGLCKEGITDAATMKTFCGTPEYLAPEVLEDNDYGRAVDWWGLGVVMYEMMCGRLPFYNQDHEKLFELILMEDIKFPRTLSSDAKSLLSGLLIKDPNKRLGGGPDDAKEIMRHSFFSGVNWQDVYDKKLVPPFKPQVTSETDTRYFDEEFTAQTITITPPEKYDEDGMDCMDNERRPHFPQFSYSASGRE
Chain of Dual specificity tyrosine-phosphorylation-regulated kinase 3 (O43781 whole entry): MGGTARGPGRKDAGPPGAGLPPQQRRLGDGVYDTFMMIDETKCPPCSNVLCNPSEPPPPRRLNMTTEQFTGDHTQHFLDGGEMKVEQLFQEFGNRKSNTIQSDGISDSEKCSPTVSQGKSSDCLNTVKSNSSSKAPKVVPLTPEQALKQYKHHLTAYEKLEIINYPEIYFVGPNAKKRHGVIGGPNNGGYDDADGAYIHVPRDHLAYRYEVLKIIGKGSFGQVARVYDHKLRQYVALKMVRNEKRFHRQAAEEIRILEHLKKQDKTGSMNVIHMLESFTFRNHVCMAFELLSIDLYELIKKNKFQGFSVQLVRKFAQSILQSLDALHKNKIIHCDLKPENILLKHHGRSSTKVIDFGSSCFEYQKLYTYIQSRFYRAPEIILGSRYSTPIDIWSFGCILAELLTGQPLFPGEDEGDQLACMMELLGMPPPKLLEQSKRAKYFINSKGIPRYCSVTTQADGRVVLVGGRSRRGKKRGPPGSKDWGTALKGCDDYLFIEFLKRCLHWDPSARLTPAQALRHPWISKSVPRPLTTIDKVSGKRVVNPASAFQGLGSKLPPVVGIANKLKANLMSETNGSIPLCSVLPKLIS
Chain of Tyrosine-protein kinase ABL1 (P00519 whole entry): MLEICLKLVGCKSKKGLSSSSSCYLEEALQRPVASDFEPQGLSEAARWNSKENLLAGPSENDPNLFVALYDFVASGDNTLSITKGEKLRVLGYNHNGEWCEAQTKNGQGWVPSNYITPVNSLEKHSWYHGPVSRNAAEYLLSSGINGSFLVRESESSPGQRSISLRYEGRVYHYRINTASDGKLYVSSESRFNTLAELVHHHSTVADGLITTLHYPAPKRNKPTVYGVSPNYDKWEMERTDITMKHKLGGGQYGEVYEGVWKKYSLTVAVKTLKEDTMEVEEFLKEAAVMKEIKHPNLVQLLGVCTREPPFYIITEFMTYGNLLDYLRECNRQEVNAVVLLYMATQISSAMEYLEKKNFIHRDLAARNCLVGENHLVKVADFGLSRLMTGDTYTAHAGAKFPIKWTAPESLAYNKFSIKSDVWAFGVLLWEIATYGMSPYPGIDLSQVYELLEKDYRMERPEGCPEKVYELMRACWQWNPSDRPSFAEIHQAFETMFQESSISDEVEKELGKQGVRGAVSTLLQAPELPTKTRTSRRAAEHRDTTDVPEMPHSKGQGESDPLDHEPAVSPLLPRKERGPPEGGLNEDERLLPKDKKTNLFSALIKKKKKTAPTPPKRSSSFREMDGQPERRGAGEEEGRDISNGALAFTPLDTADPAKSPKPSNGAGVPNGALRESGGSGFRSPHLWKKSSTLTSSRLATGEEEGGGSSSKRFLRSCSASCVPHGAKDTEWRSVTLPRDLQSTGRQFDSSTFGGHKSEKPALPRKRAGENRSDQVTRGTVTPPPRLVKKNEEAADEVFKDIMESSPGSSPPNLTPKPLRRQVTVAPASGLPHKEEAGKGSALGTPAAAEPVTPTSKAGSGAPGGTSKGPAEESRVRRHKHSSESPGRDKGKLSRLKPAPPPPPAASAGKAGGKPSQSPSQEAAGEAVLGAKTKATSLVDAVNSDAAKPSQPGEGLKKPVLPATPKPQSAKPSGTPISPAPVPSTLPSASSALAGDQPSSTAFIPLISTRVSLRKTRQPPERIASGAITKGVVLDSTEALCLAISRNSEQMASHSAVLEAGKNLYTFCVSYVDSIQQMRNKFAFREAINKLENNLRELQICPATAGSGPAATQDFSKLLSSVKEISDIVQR
Chain of Protein kinase C iota type (P41743 whole entry): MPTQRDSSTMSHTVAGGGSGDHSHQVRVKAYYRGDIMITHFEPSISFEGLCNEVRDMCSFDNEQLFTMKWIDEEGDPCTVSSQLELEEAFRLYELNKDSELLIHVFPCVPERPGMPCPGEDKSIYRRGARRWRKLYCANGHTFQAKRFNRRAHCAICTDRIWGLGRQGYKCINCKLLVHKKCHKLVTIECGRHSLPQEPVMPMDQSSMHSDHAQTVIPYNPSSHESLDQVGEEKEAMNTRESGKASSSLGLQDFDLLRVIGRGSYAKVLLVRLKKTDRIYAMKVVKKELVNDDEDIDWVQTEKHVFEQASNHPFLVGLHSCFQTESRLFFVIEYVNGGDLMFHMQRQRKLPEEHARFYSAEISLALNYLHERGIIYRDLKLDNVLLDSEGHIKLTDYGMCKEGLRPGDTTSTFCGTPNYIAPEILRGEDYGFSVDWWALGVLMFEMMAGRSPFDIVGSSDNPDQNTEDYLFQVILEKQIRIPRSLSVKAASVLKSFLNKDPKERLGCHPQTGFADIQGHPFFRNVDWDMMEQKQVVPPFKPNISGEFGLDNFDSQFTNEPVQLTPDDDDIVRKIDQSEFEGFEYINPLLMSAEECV
Chain of Casein kinase I isoform delta (P48730 whole entry, canonical isoform): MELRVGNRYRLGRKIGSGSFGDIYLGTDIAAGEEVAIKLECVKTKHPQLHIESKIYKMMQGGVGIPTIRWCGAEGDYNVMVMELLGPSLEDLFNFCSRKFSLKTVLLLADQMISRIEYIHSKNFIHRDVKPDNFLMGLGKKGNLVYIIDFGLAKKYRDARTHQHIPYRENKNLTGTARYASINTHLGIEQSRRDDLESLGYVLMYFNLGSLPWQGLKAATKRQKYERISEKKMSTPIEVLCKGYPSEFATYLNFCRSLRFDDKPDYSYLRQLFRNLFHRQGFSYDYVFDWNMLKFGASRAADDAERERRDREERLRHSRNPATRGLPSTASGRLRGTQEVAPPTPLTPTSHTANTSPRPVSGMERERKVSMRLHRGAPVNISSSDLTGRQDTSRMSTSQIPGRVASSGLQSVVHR
Chain of Tyrosine-protein kinase Fyn (P06241 whole entry): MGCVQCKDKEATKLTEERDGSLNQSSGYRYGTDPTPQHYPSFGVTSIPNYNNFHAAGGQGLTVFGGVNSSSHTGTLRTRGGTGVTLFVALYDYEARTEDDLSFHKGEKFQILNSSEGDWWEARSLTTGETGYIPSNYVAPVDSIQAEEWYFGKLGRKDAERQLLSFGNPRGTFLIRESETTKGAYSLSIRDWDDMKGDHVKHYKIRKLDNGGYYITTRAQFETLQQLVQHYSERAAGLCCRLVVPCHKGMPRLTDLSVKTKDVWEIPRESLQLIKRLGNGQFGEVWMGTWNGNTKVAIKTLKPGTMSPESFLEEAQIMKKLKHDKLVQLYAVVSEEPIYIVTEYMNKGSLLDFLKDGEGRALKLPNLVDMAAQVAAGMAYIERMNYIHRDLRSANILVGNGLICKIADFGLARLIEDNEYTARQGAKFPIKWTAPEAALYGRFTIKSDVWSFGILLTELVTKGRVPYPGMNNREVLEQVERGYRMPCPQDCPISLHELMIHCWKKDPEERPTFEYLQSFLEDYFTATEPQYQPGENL

In the case of `COc1ccc(C(C[N+](=O)[O-])c2c(C)[nH]n(-c3ccccc3)c2=O)cc1` (stereo not drawn), the AC50 [1] is reported as 3000 nM (active) and the IC50 [2] is reported as 28100 nM (active).
With `Oc1c2ccccc2c2c3c(cccc13)N=N2` [SP-600125] the Ki [3] was 316 nM (active), the Ki [4] was 501 nM (active) and the Ki [5] was > 10000 nM (inactive). The Ki [6] was 501 nM (active), the Ki [7] was 31.6 nM (active) and the Ki [8] was 158 nM (active). The Ki [9] was > 1580 nM (inactive), the Ki [10] was 200 nM (active) and the Ki [11] was > 631 nM (inactive). The Ki [12] was 1580 nM (active), the Ki [13] was 316 nM (active) and the Ki [14] was 63.1 nM (active). The Ki [15] was > 5010 nM (inactive), the Ki [16] was 316 nM (active) and the Ki [17] was > 794 nM (inactive). For the same molecule, the Ki [18] was > 10000 nM (inactive), the Ki [19] was 200 nM (active) and the Ki [20] was 3.98 nM (active). For the same molecule, the Ki [21] was 200 nM (active), the Ki [22] was 1000 nM (active) and the Ki [23] was 501 nM (active).

From ChEMBL document CHEMBL1201862, “PubChem BioAssay data set” (2004)
